Laboratory results as given in publication PMC8692498, “Synthesis and multifaceted pharmacological activity of novel quinazoline NHE-1 inhibitors” (Scientific Reports, 2021).
Entries after “also recorded” stand apart in the source; their conditions may differ.

How the values were obtained:
ICR mice = test: Tail suspension test (antidepressant activity); assay type: in vivo; settings: intragastrically 30 min before test, dose equimolar to 2.6 mg/kg amiloride
Method: The experiment was carried out on 36 male ICR mice weighing 22-25 g, divided into groups of 6 animals each under room lighting (300 lux). […] In experiments, test substances were administered intragastrically 30 min before the start of the test. Experimental groups received test compounds in an equimolar dose to the comparison drug amiloride. Animals of the remaining groups were treated with 2.6 mg/kg amiloride, 10 mg/kg amitriptyline, or 8 mg/kg imipramine. Distilled water was administered to the control group. The time of immobilization of the animals was recorded.

IL-6 secretion = test: Interleukin-6 secretion (ELISA) from LPS-stimulated peritoneal macrophages; assay type: cell-based, mice; settings: male, C57BL/6J, mouse, primary peritoneal macrophages stimulated with LPS; CC50 versus IC50 of IL-6 secretion; read-out: selectivity of IL-6 inhibition over cytotoxicity
Method: (§1) Peritoneal macrophages (PM) were isolated from the peritoneal exudate of 30 male C57bl/6j mice. To accumulate PM, 1 ml of 3% peptone solution was injected intraperitoneally. After 3 days the mice were euthanized by cervical dislocation. Cells of peritoneal exudate were obtained by aseptically washing the abdominal cavity with 5 ml of sterile Hanks’s solution (+ 4-6 °C) without calcium and magnesium ions. The total number and viability of cells were assessed in a Goryaev counting chamber (Russia) with a 0.4% trypan blue staining (Sigma-Aldrich, USA). The cell concentration was adjusted to 1.0×10^6 cells/ml in DMEM (Gibco) supplemented with 2 mM L-glutamine (Gibco), 10% heat-inactivated fetal bovine serum (BioClot, Germany), 100 U/ml penicillin and […] streptomycin (Gibco) and plated 200 μl/well in 96-well transparent plates (SPL Life Sciences Co., Ltd., Korea). It was left for 2 h at 37°C in a humidified atmosphere with 5% CO2, after which the wells were washed to remove non-adherent cells. After 24 hours of incubation, 20 μl of the supernatant was removed and 20 μl of solutions of test compounds were added 30 min before E. coli O127:B8 LPS (100 ng/ml final concentration). Experiments were run in 3 independent replicates.
(§2) Cell supernatant was collected and centrifuged at 1000 g for 20 min in a 2-16PK Sigma centrifuge (Germany). The concentration of IL-6 was determined by ELISA using a commercial kit (Cloud-clone ELISA kit) with a microplate reader Infinite M200 PRO (Tecan, Austria).

[1] = system: primary peritoneal macrophages of C57BL/6J mice; test: as above; assay type: cell-based
Method: as §1, §2

NHE-1 = target: T1, NHE-1 (Oryctolagus cuniculus, UniProt P23791); test: NHE-1 inhibition assay on rabbit platelets (platelet shape change after acidification with sodium propionate, laser aggregometer); assay type: cell-based
T1 construct: endogenous in cells; host or cells: rabbit platelets in platelet-rich plasma (male rabbits)

[2] = Solubility under the conditions of the platelet aggregation assay; assay type: physicochemical; settings: antiplatelet assay
Method: Test compounds were dissolved in 99% DMSO (stock concentration 40 mM) and stored at –25 °C. If sediment or opalescence was detected, 5% Tween 20 (Merck) was added. Serial dilutions were prepared ex tempore in a media suitable for the particular study. Final concentration in samples: DMSO <0.25%, Tween 20 <0.025% (were added to control samples in equal concentrations).
Functional activity of platelets was determined on a two-channel laser analyzer of platelet aggregation "BIOLA-220 LA" (Russia) as described previously. The experiments were carried out on 6 male rabbits weighing 3.5–4 kg. To prepare platelet-rich plasma (PRP) venous blood was taken from the ear marginal vein of a rabbit, stabilized with a 3.8% sodium citrate solution in a ratio of 9:1 and centrifuged for 10 min at 1500 rpm. PRP (300 μL) and a solution of the test compound at a concentration of 100 μM were sequentially introduced into the cell of the aggregometer. The samples were incubated in thermostated cells of the aggregometer at 37 °C for 5 min. To induce aggregation adenosine-5-diphosphoric acid (ADP, Sigma, USA) at a final concentration of 5 μM, was added to the cuvette. Acetylsalicylic acid (Shandong Xinhua Pharmaceutical Co., Ltd., China) was used as a reference drug. Experiments were run in 5 independent replicates.

T1 sequence (P23791 whole entry): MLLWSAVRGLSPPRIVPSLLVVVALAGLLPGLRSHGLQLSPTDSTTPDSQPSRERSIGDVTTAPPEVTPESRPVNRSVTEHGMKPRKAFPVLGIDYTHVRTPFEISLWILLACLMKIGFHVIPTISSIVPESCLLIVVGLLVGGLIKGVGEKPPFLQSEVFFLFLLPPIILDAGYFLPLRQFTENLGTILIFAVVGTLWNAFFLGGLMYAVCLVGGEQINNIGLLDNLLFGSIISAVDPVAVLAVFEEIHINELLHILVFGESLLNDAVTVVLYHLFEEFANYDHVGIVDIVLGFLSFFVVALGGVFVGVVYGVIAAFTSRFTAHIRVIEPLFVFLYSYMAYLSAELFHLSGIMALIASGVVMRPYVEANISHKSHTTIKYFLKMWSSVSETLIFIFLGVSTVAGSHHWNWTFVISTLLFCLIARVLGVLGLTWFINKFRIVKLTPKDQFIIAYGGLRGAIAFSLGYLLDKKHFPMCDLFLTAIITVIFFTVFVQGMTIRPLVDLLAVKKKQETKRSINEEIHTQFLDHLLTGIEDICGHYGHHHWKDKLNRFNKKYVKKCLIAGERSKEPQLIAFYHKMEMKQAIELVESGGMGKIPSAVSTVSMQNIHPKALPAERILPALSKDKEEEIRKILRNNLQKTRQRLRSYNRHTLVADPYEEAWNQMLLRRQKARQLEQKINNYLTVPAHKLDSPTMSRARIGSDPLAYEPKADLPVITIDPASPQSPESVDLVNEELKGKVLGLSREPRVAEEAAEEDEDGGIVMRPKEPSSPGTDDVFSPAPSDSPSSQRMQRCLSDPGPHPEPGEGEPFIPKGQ

IC50 ([1]; Mus musculus, Peritoneal macrophage, LPS-stimulated murine macrophages, read-out: IC50 of IL-6 synthesis/secretion): 32.1 µM
IC50 (NHE-1): 0.0058 µM
solubility under assay conditions [2]: insoluble under assay conditions
SMILES: Cn1c(=O)n(Cc2nnc(N)[nH]2)c(=O)c2ccccc21 [Compound 3e, 3-[(5-Amino-4H-1,2,4-triazol-3-yl)methyl]-1-methylquinazoline-2,4(1H,3H)-dione]
antidepressant activity (ICR mice): antidepressant activity similar to amiloride; also recorded: antidepressant activity comparable with amiloride
selectivity ratio (IL-6 secretion): 4 to 6
secretion of interleukin 6 ([1]; LPS-stimulated macrophages, screening (Fig. 4)): suppressed
